Earlier results, collected in article PMC4937428, “The Next Generation Non-competitive Active Polyester Nanosystems for Transferrin Receptor-mediated Peroral Transport Utilizing Gambogic Acid as a Ligand” (Scientific Reports, 2016).

Set-up: method as in PMID 16918721
Conditions: described in the literature

Compound: CC(C)=CCC[C@]1(C)C=Cc2c(O)c3c(c(CC=C(C)C)c2O1)O[C@]12C(=C[C@@H]4C[C@H]1C(C)(C)O[C@@]2(C/C=C(/C)C(=O)O)C4=O)C3=O [GA, gambogic acid]
- Established safe dose: 60 mg/kg
